Experiments:
Experiment in all cases: Minimum inhibitory concentration (CLSI M07-8A, modified)
Format in all cases: cell-based
[1] = tested on: Clostridium difficile UK1; details: peptide purified to about 90%; THyex medium; 24 hour incubation; anaerobic chamber at 37° C.
Description: (§1) Wild-type mutacin 1140, mutacin 1140 with a F1I mutation, mutacin 1140 with a W4A mutation, and mutacin 1140 with a R13D mutation was purified to about 90% purity (measured via HPLC). The minimum inhibitory concentration (MIC) of MU1140 and variants of MU1140 was determined against several bacteria. The MIC is the lowest concentration of MU1140 that will inhibit the visible growth of a microorganism after 24 hour incubation. A lower MIC is an indication of greater inhibitory activity. Preparation of the antimicrobial agent and bacterial inoculum for minimum inhibitory concentrations (MICs) was performed by following the method described in Clinical Laboratory Standard Institute (CLSI) M07-8A with some minor modifications. Streptococcus mutans UA159 was tested overnight in a shaking incubator to maintain uniform dispersion of the bacteria. Clostridium difficile UK1 was tested in an anaerobic chamber at 37° C. The medium used was THyex.

[2] = tested on: Staphylococcus aureus FA1; details: peptide purified to about 90%; THyex medium; 24 hour incubation
Description: as §1

[3] = tested on: Micrococcus luteus ATCC10240; details: peptide purified to about 90%; THyex medium; 24 hour incubation
Description: as §1

[4] = tested on: Streptococcus pneumonia FA1; details: peptide purified to about 90%; THyex medium; 24 hour incubation
Description: as §1

[5] = tested on: Streptococcus mutans UA159; details: peptide purified to about 90%; THyex medium; 24 hour incubation; shaking incubator overnight
Description: as §1

Mu1140 Wild-type: wild-type lantibiotic mutacin MU1140 (SEQ ID NO:1) produced by S. mutans strain JH1140 (ATCC 55676)
MIC Clostridium difficile UK1 [1]: 16 | MIC Staphylococcus aureus FA1 [2]: 16 | MIC Micrococcus luteus ATCC10240 [3]: 0.0625 | MIC Streptococcus pneumonia FA1 [4]: 0.5 | MIC Streptococcus mutans UA159 [5]: 2

Reference: patent US9260488B2, “Replacement therapy for dental caries” (Oragenics, Inc., priority 2012, dated 2016)
